Among the test systems are HL-60(TB) leukemia; HOP-92 NSCLC; HT29 colon; IGROV1 ovarian; KM12 colon; M14 melanoma; NCI-H226 lung; OVCAR-5 ovarian; RXF 393 renal; SN12C renal.
Common to all, as to test: inhibition of tumour cell growth, NCI panel, 48 h

20 compounds from PubChem BioAssay (NCI) can be followed below.

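Each compound was tested at five concentrations against cells in 96-well plates for 48 hours. At the GI50, growth is halved. TGI: total growth inhibition.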

Turning to `C=CC[n+]1c2ccccc2n2cc([N+](=O)[O-])ccc21`, the TGI in the assay on HL-60(TB) leukemia is 50.3 µM; in the assay on HOP-92 NSCLC, 46.5 µM; in the assay on HT29 colon, 39.4 µM; in the assay with IGROV1 ovarian it was 51.5 µM; with KM12 colon, more than 100 µM; with M14 melanoma, more than 100 µM. Also, the TGI was 69.3 µM in the assay on NCI-H226 lung, more than 100 µM in the assay with OVCAR-5 ovarian, more than 100 µM in the assay on RXF 393 renal and 68.7 µM with SN12C renal.

For `CCc1cc2c(c3c1CCCC3=O)CC1(Cc3ccc(C(=O)OC)cc3C1)C2` (stereo unspecified), the TGI is 55.4 µM in the assay with HL-60(TB) leukemia; more than 100 µM in the assay with HOP-92 NSCLC; more than 100 µM with HT29 colon; more than 100 µM with IGROV1 ovarian; more than 100 µM in the assay with KM12 colon; more than 100 µM in the assay with M14 melanoma. The TGI with NCI-H226 lung, in the assay on OVCAR-5 ovarian, with RXF 393 renal and in the assay with SN12C renal was more than 100 µM throughout.

For the compound `Cc1c(C(=O)OCc2ccccc2)[n+](=O)c2cc(Cl)c(Cl)cc2n1[O-]`, the TGI with HL-60(TB) leukemia is 27.3 µM; with HOP-92 NSCLC it was 20 µM; with HT29 colon it was 32.2 µM; in the assay on IGROV1 ovarian it was 19 µM; with KM12 colon it was 24.6 µM; in the assay on M14 melanoma it was 28.3 µM. Moreover, the TGI in the assay with NCI-H226 lung was 20.1 µM; with OVCAR-5 ovarian it was 39.2 µM; with RXF 393 renal, 36 µM; in the assay with SN12C renal it was 45.3 µM.

For `COc1ccc(/C(Cl)=C/c2cc(OC)ccc2OC)cc1`, the TGI in the assay with HL-60(TB) leukemia is 81.8 µM; in the assay on HOP-92 NSCLC, more than 100 µM; in the assay with HT29 colon it was more than 100 µM; in the assay on IGROV1 ovarian, more than 100 µM; in the assay with M14 melanoma, more than 100 µM; with NCI-H226 lung it was more than 100 µM. Also, the TGI was 69.6 µM in the assay on RXF 393 renal and more than 100 µM with SN12C renal.

Turning to `COC(=O)C1C(=O)N(C)C(=O)N2CCCC12` (stereo unspecified), the TGI with HL-60(TB) leukemia, with HOP-92 NSCLC, with HT29 colon, in the assay with IGROV1 ovarian, in the assay on KM12 colon and with M14 melanoma was more than 100 µM each time. For the same compound, the TGI with NCI-H226 lung, with OVCAR-5 ovarian and in the assay on RXF 393 renal was more than 100 µM throughout.

As to `CN(C)CCCNc1ccc2nnn3c4ccc(O)cc4c(=O)c1c23`, the TGI with HL-60(TB) leukemia is more than 46.9 µM; in the assay on HOP-92 NSCLC, 20.7 µM; in the assay on HT29 colon, 15.6 µM; with IGROV1 ovarian, 17.9 µM; with KM12 colon, 13.5 µM; in the assay on M14 melanoma, 21 µM. Further, the TGI amounted to 17.3 µM with NCI-H226 lung, 23.2 µM with OVCAR-5 ovarian, 1.16 µM with RXF 393 renal and 18.8 µM in the assay with SN12C renal.

Consider `O=C(CCN1CCN2c3ccccc3CCC2C1)c1ccc(F)cc1` (stereo unspecified), for which the TGI was 89.6 µM in the assay on HL-60(TB) leukemia; 82.1 µM with HOP-92 NSCLC; 41.7 µM in the assay on HT29 colon; 47.9 µM in the assay with IGROV1 ovarian; more than 100 µM in the assay on KM12 colon; more than 100 µM in the assay with M14 melanoma. The TGI in the assay with NCI-H226 lung was 98.6 µM; with OVCAR-5 ovarian, 62.2 µM; with RXF 393 renal, 43.3 µM; with SN12C renal it was more than 100 µM.

As for `O=c1oc(C(C(F)(F)F)C(F)(F)F)nc2ccccc12`, the TGI in the assay with HL-60(TB) leukemia, in the assay on HOP-92 NSCLC, in the assay on HT29 colon, with IGROV1 ovarian, in the assay with M14 melanoma and in the assay on NCI-H226 lung was more than 100 µM each time. The TGI in the assay on OVCAR-5 ovarian and in the assay on RXF 393 renal was more than 100 µM each time.

Take `C/C(=N\Nc1nc2cc(C(F)(F)F)ccc2s1)c1ccccn1`: the TGI came to 0.872 µM with HL-60(TB) leukemia; 8.15 µM in the assay with HOP-92 NSCLC; 1.81 µM in the assay on HT29 colon; 3.99 µM in the assay on IGROV1 ovarian; 9.03 µM in the assay on KM12 colon; 7.14 µM with M14 melanoma. Further, the TGI in the assay on NCI-H226 lung amounted to 3.31 µM; with OVCAR-5 ovarian, 23.4 µM; in the assay with RXF 393 renal, 12.5 µM; in the assay on SN12C renal it was 1.51 µM.

Regarding `COc1cc(C2C(Cl)C(=O)N2c2c(C)n(C)n(-c3ccccc3)c2=O)ccc1O` (stereo unspecified), the TGI with HL-60(TB) leukemia amounted to 64.1 µM; in the assay with HOP-92 NSCLC it was 74 µM; in the assay with HT29 colon it was 36 µM; in the assay on IGROV1 ovarian it was 29.1 µM; in the assay with KM12 colon, 44.6 µM; with M14 melanoma, 30.7 µM. Also, the TGI in the assay on NCI-H226 lung is 53.8 µM; with OVCAR-5 ovarian, 42.7 µM; in the assay with RXF 393 renal it was 33.6 µM; with SN12C renal, 37.9 µM.

As for `CCOP(=O)(O)CN1CCNCCN(CP(=O)(O)OCC)CCNCC1`, the TGI in the assay with HL-60(TB) leukemia, in the assay with HOP-92 NSCLC, in the assay with HT29 colon, in the assay with IGROV1 ovarian, with KM12 colon and in the assay with NCI-H226 lung was more than 100 µM throughout. Moreover, the TGI in the assay on OVCAR-5 ovarian, in the assay with RXF 393 renal and with SN12C renal was more than 100 µM throughout.

As to `O=C1c2c(O)cccc2-c2nn(CCNCCO)c3ccc(NCCNCCO)c1c23`, the TGI turned out to be 0.123 µM in the assay with HL-60(TB) leukemia; 0.609 µM in the assay with HOP-92 NSCLC; 13.1 µM in the assay with HT29 colon; 5.8 µM in the assay on IGROV1 ovarian; 7.73 µM in the assay with KM12 colon; 2.02 µM in the assay on M14 melanoma. Also, the TGI was 0.0964 µM with NCI-H226 lung, 2.85 µM in the assay on OVCAR-5 ovarian, 1.37 µM in the assay on RXF 393 renal and 0.454 µM with SN12C renal.

Consider `Cc1cc(C)c2c(c1)C(=O)/C(=C/c1ccccc1C(=O)O)C2`, for which the TGI in the assay on HL-60(TB) leukemia, in the assay on HOP-92 NSCLC, with HT29 colon, in the assay with IGROV1 ovarian, with KM12 colon and in the assay on M14 melanoma was more than 100 µM in each case. Besides, the TGI in the assay with NCI-H226 lung, in the assay on RXF 393 renal and in the assay on SN12C renal was more than 100 µM in each case.

With `Cc1ccc(S(=O)(=O)Nn2c(O)c(C#N)c(-c3ccc(Cl)cc3)c(C#N)c2=O)cc1`, the TGI with HL-60(TB) leukemia, in the assay on HOP-92 NSCLC, with HT29 colon, in the assay on IGROV1 ovarian, in the assay with KM12 colon and in the assay on M14 melanoma was more than 100 µM each time. Besides, the TGI in the assay on NCI-H226 lung, in the assay with OVCAR-5 ovarian, in the assay on RXF 393 renal and in the assay on SN12C renal was more than 100 µM throughout.

As for `COc1ccc(Nc2ccc3ccccc3c2-c2c(O)ccc3ccccc23)cc1`, the TGI in the assay with HL-60(TB) leukemia worked out at 55.2 µM; in the assay on HOP-92 NSCLC it was 14.3 µM; with HT29 colon it was 29.6 µM; in the assay with IGROV1 ovarian, 23 µM; in the assay with KM12 colon it was 29.5 µM; in the assay on NCI-H226 lung, 30.5 µM. Besides, the TGI in the assay with OVCAR-5 ovarian amounted to 31.8 µM; with RXF 393 renal it was 49.8 µM; with SN12C renal, 35.1 µM.

As for `NCc1cccc(O)c1O`, the TGI in the assay with HL-60(TB) leukemia, in the assay with HOP-92 NSCLC, with HT29 colon, in the assay with KM12 colon, with M14 melanoma and with NCI-H226 lung was more than 100 µM in each case. Further, the TGI in the assay on OVCAR-5 ovarian, in the assay on RXF 393 renal and in the assay with SN12C renal was more than 100 µM in each case.

With `O=[N+]([O-])c1cccc(N=Nc2c(O)c(S(=O)(=O)O)cc3cc(S(=O)(=O)O)ccc23)c1`, the TGI in the assay with HL-60(TB) leukemia, with HOP-92 NSCLC, in the assay on IGROV1 ovarian, with KM12 colon, in the assay with M14 melanoma and in the assay with NCI-H226 lung was more than 100 µM each time. The TGI in the assay with OVCAR-5 ovarian, in the assay with RXF 393 renal and in the assay with SN12C renal was more than 100 µM each time.

As to `Cc1nnc2n1N=C(c1ccc(Cl)cc1Cl)/C(=C/c1ccc(-c3ccc([N+](=O)[O-])cc3Cl)o1)S2`, the GI50 was 25.1 µM in the assay on HL-60(TB) leukemia; 21.5 µM in the assay with HOP-92 NSCLC; 49.9 µM in the assay with HT29 colon; 27.5 µM with IGROV1 ovarian; 32.4 µM in the assay with KM12 colon; 20.7 µM in the assay with NCI-H226 lung. The GI50 in the assay on OVCAR-5 ovarian is 16.5 µM; in the assay with RXF 393 renal, 11.5 µM; with SN12C renal it was 17.8 µM. Besides, the TGI is 62.9 µM in the assay with HL-60(TB) leukemia; 72.5 µM in the assay with HOP-92 NSCLC; more than 100 µM in the assay with HT29 colon; more than 100 µM in the assay with IGROV1 ovarian; more than 100 µM in the assay with KM12 colon; 41.1 µM with NCI-H226 lung. Moreover, the TGI turned out to be 30.9 µM in the assay on OVCAR-5 ovarian, 25.1 µM in the assay with RXF 393 renal and 40.9 µM in the assay with SN12C renal.

Turning to `O=C1C=CC(=O)c2c(O)c(NCCOCCO)c(Cl)c(O)c21`, the TGI was more than 100 µM with HL-60(TB) leukemia; 39.4 µM in the assay on HOP-92 NSCLC; 18.1 µM in the assay with IGROV1 ovarian; 15.1 µM in the assay on KM12 colon; 23.5 µM with M14 melanoma; 32.4 µM with NCI-H226 lung. For the same compound, the TGI stood at 34.1 µM with OVCAR-5 ovarian, 27.1 µM in the assay on RXF 393 renal and 23 µM in the assay on SN12C renal.

`CCCSc1ccc2[nH]c(N3C(=O)/C(=C/c4ccccc4)N=C3c3ccccc3)cc2c1`: the TGI is 30.2 µM with HL-60(TB) leukemia; more than 50 µM with HOP-92 NSCLC; more than 50 µM with HT29 colon; more than 50 µM in the assay with IGROV1 ovarian; more than 50 µM in the assay on KM12 colon; more than 50 µM in the assay on M14 melanoma. In addition, the TGI in the assay on OVCAR-5 ovarian, in the assay on RXF 393 renal and with SN12C renal was more than 50 µM each time.
